Assay results reported in a compilation of properties of binary mixtures (doi:10.1016/j.molliq.2018.09.007).

Assay: xn = mol fraction of the nth substance listed
Conditions: 100 kPa

OCCO + CC[n+]1ccn(C)c1.O=S(=O)([O-])C(F)(F)F
x1 = 1
Conditions	speed of sound [m/s]	viscosity [mPa·s]
298.15 K	1655	16.39
303.15 K	1643.2	13.49
313.15 K	1619.7	9.34
323.15 K	1596.1	6.75

CC[n+]1ccn(C)c1.O=S(=O)([O-])C(F)(F)F + OCCO
Conditions	speed of sound [m/s]	viscosity [mPa·s]
298.15 K, x2 = 0.0943	1446	36.77
298.15 K, x2 = 0.2021	1453.2	29.22
298.15 K, x2 = 0.2937	1457.1	24.13
298.15 K, x2 = 0.408	1464.6	20.68
298.15 K, x2 = 0.5013	1473.4	18.72
298.15 K, x2 = 0.6019	1488.5	17.52
298.15 K, x2 = 0.6917	1510.9	16.97
298.15 K, x2 = 0.8964	1586.6	16.51
303.15 K, x2 = 0.2021	1442.1	24.77
303.15 K, x2 = 0.2937	1445.9	20.6
303.15 K, x2 = 0.408	1453.3	17.93
303.15 K, x2 = 0.5013	1462.1	16.38
303.15 K, x2 = 0.6019	1477.2	15.41
303.15 K, x2 = 0.6917	1499.5	14.89
303.15 K, x2 = 0.798	1532.6	14.39
303.15 K, x2 = 0.8964	1575.1	13.74
308.15 K, x2 = 0.0943	1423.9	26.23
308.15 K, x2 = 0.2021	1430.9	21.17
308.15 K, x2 = 0.2937	1434.8	17.74
308.15 K, x2 = 0.408	1442.2	15.7
308.15 K, x2 = 0.5013	1451	14.49
308.15 K, x2 = 0.6917	1488.2	13.23
308.15 K, x2 = 0.798	1521.5	12.63
313.15 K, x2 = 0.0943	1412.8	22.47
313.15 K, x2 = 0.2021	1419.9	18.26
313.15 K, x2 = 0.2937	1423.8	15.41
313.15 K, x2 = 0.5013	1439.9	12.93
313.15 K, x2 = 0.6019	1454.8	12.31
313.15 K, x2 = 0.6917	1477	11.88
313.15 K, x2 = 0.798	1509.9	11.22
313.15 K, x2 = 0.8964	1552.1	10.22
318.15 K, x2 = 0.2021	1409.1	15.91
318.15 K, x2 = 0.2937	1412.9	13.52
318.15 K, x2 = 0.408	1420.2	12.38
318.15 K, x2 = 0.5013	1428.8	11.66
318.15 K, x2 = 0.6019	1443.7	11.17
318.15 K, x2 = 0.6917	1465.7	10.76
318.15 K, x2 = 0.798	1498.5	10.07
318.15 K, x2 = 0.8964	1540.6	8.97
323.15 K, x2 = 0.2937	1402	11.94
323.15 K, x2 = 0.5013	1417.9	10.58
323.15 K, x2 = 0.6019	1432.7	10.2
323.15 K, x2 = 0.6917	1454.6	9.84
323.15 K, x2 = 0.798	1487.2	9.13
323.15 K, x2 = 0.8964	1529.1	7.95

CN(C)C=O + CC[n+]1ccn(C)c1.O=S(=O)([O-])C(F)(F)F
x1 = 1
Conditions	speed of sound [m/s]	viscosity [mPa·s]
303.15 K	1449.1	0.77
308.15 K	1435.2	0.72
313.15 K	1421.2	0.69
318.15 K	1407.2	0.65
323.15 K	1393.6	0.62

CC[n+]1ccn(C)c1.O=S(=O)([O-])C(F)(F)F + CN(C)C=O
Conditions	speed of sound [m/s]	viscosity [mPa·s]
298.15 K, x2 = 0.0917	1438.8	36.96
298.15 K, x2 = 0.2995	1444	20.94
298.15 K, x2 = 0.406	1446	14.56
298.15 K, x2 = 0.5094	1448.4	8.77
298.15 K, x2 = 0.5976	1450.6	6.17
298.15 K, x2 = 0.6947	1453.4	3.45
298.15 K, x2 = 0.7981	1457.5	2.59
298.15 K, x2 = 0.8957	1460.7	1.54
303.15 K, x2 = 0.0917	1427.6	31.13
303.15 K, x2 = 0.1933	1428.8	24.16
303.15 K, x2 = 0.2995	1430.7	17.86
303.15 K, x2 = 0.5094	1434.6	7.75
303.15 K, x2 = 0.5976	1436.5	5.52
303.15 K, x2 = 0.6947	1439.7	3.21
303.15 K, x2 = 0.7981	1443.5	2.38
303.15 K, x2 = 0.8957	1446.8	1.44
308.15 K, x2 = 0.0917	1416	26.42
308.15 K, x2 = 0.1933	1417.8	20.62
308.15 K, x2 = 0.2995	1419.1	15.36
308.15 K, x2 = 0.5094	1422.7	6.9
308.15 K, x2 = 0.5976	1424.4	4.98
308.15 K, x2 = 0.6947	1426.9	2.99
308.15 K, x2 = 0.7981	1429.7	2.19
308.15 K, x2 = 0.8957	1432.8	1.34
313.15 K, x2 = 0.0917	1404.6	22.67
313.15 K, x2 = 0.1933	1406.5	17.78
313.15 K, x2 = 0.2995	1408	13.34
313.15 K, x2 = 0.406	1409.7	9.57
313.15 K, x2 = 0.5094	1411	6.18
313.15 K, x2 = 0.6947	1414.6	2.78
313.15 K, x2 = 0.8957	1419.2	1.25
318.15 K, x2 = 0.406	1398.7	8.46
318.15 K, x2 = 0.5094	1399.7	5.57
318.15 K, x2 = 0.5976	1400.4	4.1
318.15 K, x2 = 0.7981	1403.5	1.88
318.15 K, x2 = 0.8957	1405.3	1.18
323.15 K, x2 = 0.0917	1382.3	17.12
323.15 K, x2 = 0.1933	1384	13.56
323.15 K, x2 = 0.2995	1386	10.31
323.15 K, x2 = 0.406	1387.4	7.53
323.15 K, x2 = 0.5094	1388	5.05
323.15 K, x2 = 0.5976	1388.9	3.75
323.15 K, x2 = 0.7981	1390.6	1.75
323.15 K, x2 = 0.8957	1392.1	1.11
